Assay results from the supplement of paper PMC10307832.

Assays:
Experiment in all cases: relative viability (nuclei count vs DMSO), 5 days (fraction); higher = more cells survive
[1] = compound: Cn1cncc1[C@@](N)(c1ccc(Cl)cc1)c1ccc2c(c1)c(-c1cccc(Cl)c1)cc(=O)n2C [Tipifarnib] + Nc1ncn([C@H]2C[C@H](O)[C@@H](CO)O2)c(=O)n1 [Decitabine] (partner 2 µM)
In short: (§1)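 Medians of duplicate plates are given as relative viability. That measure is the nuclei count in treated wells divided by the count in vehicle wells. Counts were taken on 4× images of lung cancer cell lines in 1536-well plates, 5 days after pin-tool dosing the day after seeding with one drug alone or a fixed anchor-drug dose plus five library-drug doses (not always all listed) in √10 steps.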

[2] = compound: Cn1cncc1[C@@](N)(c1ccc(Cl)cc1)c1ccc2c(c1)c(-c1cccc(Cl)c1)cc(=O)n2C [Tipifarnib] + O=C(c1cc(Cc2n[nH]c(=O)c3ccccc23)ccc1F)N1CCN(C(=O)C2CC2)CC1 [Olaparib] (partner 8 µM)
In short: as §1

[3] = compound: Cn1cncc1[C@@](N)(c1ccc(Cl)cc1)c1ccc2c(c1)c(-c1cccc(Cl)c1)cc(=O)n2C [Tipifarnib] + CCNC(=O)c1noc(-c2cc(C(C)C)c(O)cc2O)c1-c1ccc(CN2CCOCC2)cc1 [Luminespib] (partner 0.01 µM)
In short: as §1

[4] = compound: Cn1cncc1[C@@](N)(c1ccc(Cl)cc1)c1ccc2c(c1)c(-c1cccc(Cl)c1)cc(=O)n2C [Tipifarnib] + CS(=O)(=O)CCNCc1ccc(-c2ccc3ncnc(Nc4ccc(OCc5cccc(F)c5)c(Cl)c4)c3c2)o1 [Lapatinib] (partner 2 µM)
In short: as §1

## COR-L23
[1]; first compound 0.01 µM
  relative viability: 0.526
[1]; first compound 0.03162 µM
  relative viability: 0.329
[1]; first compound 0.1 µM
  relative viability: 0.375
[1]; first compound 0.3162 µM
  relative viability: 0.347
[1]; first compound 1 µM
  relative viability: 0.288
[2]; first compound 0.01 µM
  relative viability: 0.403
[2]; first compound 0.03162 µM
  relative viability: 0.289
[2]; first compound 0.1 µM
  relative viability: 0.335
[2]; first compound 0.3162 µM
  relative viability: 0.255
[2]; first compound 1 µM
  relative viability: 0.258
[3]; first compound 0.01 µM
  relative viability: 0.814
[3]; first compound 0.03162 µM
  relative viability: 0.568
[3]; first compound 0.1 µM
  relative viability: 0.511
[3]; first compound 0.3162 µM
  relative viability: 0.344
[3]; first compound 1 µM
  relative viability: 0.438
[4]; first compound 0.01 µM
  relative viability: 0.942
[4]; first compound 0.03162 µM
  relative viability: 0.641
[4]; first compound 0.1 µM
  relative viability: 0.739
[4]; first compound 0.3162 µM
  relative viability: 0.582
[4]; first compound 1 µM
  relative viability: 0.4

## NCI-H1944
[1]; first compound 0.01 µM
  relative viability: 0.421
[1]; first compound 0.03162 µM
  relative viability: 0.452
[1]; first compound 0.1 µM
  relative viability: 0.413
[1]; first compound 0.3162 µM
  relative viability: 0.346
[1]; first compound 1 µM
  relative viability: 0.404
[2]; first compound 0.01 µM
  relative viability: 0.41
[2]; first compound 0.03162 µM
  relative viability: 0.364
[2]; first compound 0.1 µM
  relative viability: 0.356
[2]; first compound 0.3162 µM
  relative viability: 0.376
[2]; first compound 1 µM
  relative viability: 0.382
[3]; first compound 0.01 µM
  relative viability: 0.641
[3]; first compound 0.03162 µM
  relative viability: 0.657
[3]; first compound 0.1 µM
  relative viability: 0.363
[3]; first compound 0.3162 µM
  relative viability: 0.372
[3]; first compound 1 µM
  relative viability: 0.393
[4]; first compound 0.01 µM
  relative viability: 0.854
[4]; first compound 0.03162 µM
  relative viability: 0.622
[4]; first compound 0.1 µM
  relative viability: 0.599
[4]; first compound 0.3162 µM
  relative viability: 0.444
[4]; first compound 1 µM
  relative viability: 0.342

## NCI-H2405
[1]; first compound 0.01 µM
  relative viability: 0.783
[1]; first compound 0.03162 µM
  relative viability: 0.688
[1]; first compound 0.1 µM
  relative viability: 0.721
[1]; first compound 0.3162 µM
  relative viability: 0.683
[1]; first compound 1 µM
  relative viability: 0.73
[2]; first compound 0.01 µM
  relative viability: 0.88
[2]; first compound 0.03162 µM
  relative viability: 0.899
[2]; first compound 0.1 µM
  relative viability: 0.903
[2]; first compound 0.3162 µM
  relative viability: 0.801
[2]; first compound 1 µM
  relative viability: 0.838
[3]; first compound 0.01 µM
  relative viability: 0.71
[3]; first compound 0.03162 µM
  relative viability: 0.584
[3]; first compound 0.1 µM
  relative viability: 0.525
[3]; first compound 0.3162 µM
  relative viability: 0.606
[3]; first compound 1 µM
  relative viability: 0.527
[4]; first compound 0.01 µM
  relative viability: 1.06
[4]; first compound 0.03162 µM
  relative viability: 0.942
[4]; first compound 0.1 µM
  relative viability: 0.949
[4]; first compound 0.3162 µM
  relative viability: 0.878
[4]; first compound 1 µM
  relative viability: 0.625

## SK-LU-1
[1]; first compound 0.01 µM
  relative viability: 0.728
[1]; first compound 0.03162 µM
  relative viability: 0.627
[1]; first compound 0.1 µM
  relative viability: 0.706
[1]; first compound 0.3162 µM
  relative viability: 0.594
[1]; first compound 1 µM
  relative viability: 0.59
[2]; first compound 0.01 µM
  relative viability: 0.527
[2]; first compound 0.03162 µM
  relative viability: 0.419
[2]; first compound 0.1 µM
  relative viability: 0.525
[2]; first compound 0.3162 µM
  relative viability: 0.395
[2]; first compound 1 µM
  relative viability: 0.292
[3]; first compound 0.01 µM
  relative viability: 0.252
[3]; first compound 0.03162 µM
  relative viability: 0.212
[3]; first compound 0.1 µM
  relative viability: 0.208
[3]; first compound 0.3162 µM
  relative viability: 0.236
[3]; first compound 1 µM
  relative viability: 0.193
[4]; first compound 0.01 µM
  relative viability: 0.725
[4]; first compound 0.03162 µM
  relative viability: 0.75
[4]; first compound 0.1 µM
  relative viability: 0.857
[4]; first compound 0.3162 µM
  relative viability: 0.388
[4]; first compound 1 µM
  relative viability: 0.367

## EMC-BAC-2
[1]; first compound 0.01 µM
  relative viability: 1.11
[1]; first compound 0.03162 µM
  relative viability: 0.853
[1]; first compound 0.1 µM
  relative viability: 0.84
[1]; first compound 0.3162 µM
  relative viability: 0.681
[1]; first compound 1 µM
  relative viability: 0.562
[2]; first compound 0.01 µM
  relative viability: 0.502
[2]; first compound 0.03162 µM
  relative viability: 0.441
[2]; first compound 0.1 µM
  relative viability: 0.482
[2]; first compound 0.3162 µM
  relative viability: 0.427
[2]; first compound 1 µM
  relative viability: 0.429
[3]; first compound 0.01 µM
  relative viability: 1.27
[3]; first compound 0.03162 µM
  relative viability: 0.907
[3]; first compound 0.1 µM
  relative viability: 0.974
[3]; first compound 0.3162 µM
  relative viability: 0.847
[3]; first compound 1 µM
  relative viability: 0.752
[4]; first compound 0.01 µM
  relative viability: 0.897
[4]; first compound 0.03162 µM
  relative viability: 0.854
[4]; first compound 0.1 µM
  relative viability: 0.771
[4]; first compound 0.3162 µM
  relative viability: 0.718
[4]; first compound 1 µM
  relative viability: 0.351

## NCI-H1650
[1]; first compound 0.01 µM
  relative viability: 0.307
[1]; first compound 0.03162 µM
  relative viability: 0.298
[1]; first compound 0.1 µM
  relative viability: 0.309
[1]; first compound 0.3162 µM
  relative viability: 0.357
[1]; first compound 1 µM
  relative viability: 0.304
[2]; first compound 0.01 µM
  relative viability: 0.747
[2]; first compound 0.03162 µM
  relative viability: 0.505
[2]; first compound 0.1 µM
  relative viability: 0.358
[2]; first compound 0.3162 µM
  relative viability: 0.321
[2]; first compound 1 µM
  relative viability: 0.416
[3]; first compound 0.01 µM
  relative viability: 0.19
[3]; first compound 0.03162 µM
  relative viability: 0.208
[3]; first compound 0.1 µM
  relative viability: 0.189
[3]; first compound 0.3162 µM
  relative viability: 0.203
[3]; first compound 1 µM
  relative viability: 0.184
[4]; first compound 0.01 µM
  relative viability: 0.687
[4]; first compound 0.03162 µM
  relative viability: 0.643
[4]; first compound 0.1 µM
  relative viability: 0.486
[4]; first compound 0.3162 µM
  relative viability: 0.376
[4]; first compound 1 µM
  relative viability: 0.211

## NCI-H596
[1]; first compound 0.01 µM
  relative viability: 0.96
[1]; first compound 0.03162 µM
  relative viability: 0.918
[1]; first compound 0.1 µM
  relative viability: 0.963
[1]; first compound 0.3162 µM
  relative viability: 0.558
[1]; first compound 1 µM
  relative viability: 0.824
[2]; first compound 0.01 µM
  relative viability: 0.667
[2]; first compound 0.03162 µM
  relative viability: 0.693
[2]; first compound 0.1 µM
  relative viability: 0.65
[2]; first compound 0.3162 µM
  relative viability: 0.574
[2]; first compound 1 µM
  relative viability: 0.593
[3]; first compound 0.01 µM
  relative viability: 1.08
[3]; first compound 0.03162 µM
  relative viability: 0.796
[3]; first compound 0.1 µM
  relative viability: 0.849
[3]; first compound 0.3162 µM
  relative viability: 0.828
[3]; first compound 1 µM
  relative viability: 0.63
[4]; first compound 0.01 µM
  relative viability: 0.99
[4]; first compound 0.03162 µM
  relative viability: 1.09
[4]; first compound 0.1 µM
  relative viability: 1.04
[4]; first compound 0.3162 µM
  relative viability: 0.868
[4]; first compound 1 µM
  relative viability: 0.608

## LCLC-97TM1
[1]; first compound 0.01 µM
  relative viability: 0.242
[1]; first compound 0.03162 µM
  relative viability: 0.242
[1]; first compound 0.1 µM
  relative viability: 0.308
[1]; first compound 0.3162 µM
  relative viability: 0.225
[1]; first compound 1 µM
  relative viability: 0.205
[2]; first compound 0.01 µM
  relative viability: 0.447
[2]; first compound 0.03162 µM
  relative viability: 0.245
[2]; first compound 0.1 µM
  relative viability: 0.315
[2]; first compound 0.3162 µM
  relative viability: 0.229
[2]; first compound 1 µM
  relative viability: 0.239
[3]; first compound 0.01 µM
  relative viability: 0.799
[3]; first compound 0.03162 µM
  relative viability: 0.751
[3]; first compound 0.1 µM
  relative viability: 0.662
[3]; first compound 0.3162 µM
  relative viability: 0.52
[3]; first compound 1 µM
  relative viability: 0.574
[4]; first compound 0.01 µM
  relative viability: 0.998
[4]; first compound 0.03162 µM
  relative viability: 1.02
[4]; first compound 0.1 µM
  relative viability: 0.554
[4]; first compound 0.3162 µM
  relative viability: 0.504
[4]; first compound 1 µM
  relative viability: 0.237
